Measurements published in ChEMBL document CHEMBL4680160, “A perspective review on fatty acid amide hydrolase (FAAH) inhibitors as potential therapeutic agents” (Eur J Med Chem, 2020).

Biological target: T1, Fatty-acid amide hydrolase 1 (Rattus norvegicus, UniProt P97612)
T1 sequence (P97612 whole entry): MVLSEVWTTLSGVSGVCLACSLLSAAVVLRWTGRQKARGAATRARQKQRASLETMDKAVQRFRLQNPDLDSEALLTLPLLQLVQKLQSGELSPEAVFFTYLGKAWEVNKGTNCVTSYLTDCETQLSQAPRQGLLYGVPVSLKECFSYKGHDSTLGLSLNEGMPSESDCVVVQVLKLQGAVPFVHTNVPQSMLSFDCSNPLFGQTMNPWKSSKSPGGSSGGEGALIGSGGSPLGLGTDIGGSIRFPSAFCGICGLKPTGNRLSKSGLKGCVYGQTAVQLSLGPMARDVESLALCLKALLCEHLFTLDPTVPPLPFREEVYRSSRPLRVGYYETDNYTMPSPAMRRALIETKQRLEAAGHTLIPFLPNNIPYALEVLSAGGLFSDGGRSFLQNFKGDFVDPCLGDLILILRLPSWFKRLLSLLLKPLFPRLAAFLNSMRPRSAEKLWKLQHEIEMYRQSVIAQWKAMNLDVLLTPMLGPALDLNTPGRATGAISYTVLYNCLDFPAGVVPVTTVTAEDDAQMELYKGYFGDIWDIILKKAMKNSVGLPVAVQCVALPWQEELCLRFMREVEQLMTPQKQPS
Assay: Inhibition of rat FAAH using [3H]-AEA as substrate by liquid chromatography-mass spectrometry

| IC50 | SMILES |
| --- | --- |
| 0.8 nM | CC(=O)Oc1cn(C(=O)NCCCCc2ccc(-c3ccccc3)cc2)c(=O)[nH]c1=O |
| 492 nM | CCCCCCNC(=O)n1ccc(=O)[nH]c1=O |
| 3 nM | CC(=O)Oc1cn(C(=O)NCCCCCCCc2ccccc2)c(=O)[nH]c1=O |
| 25 nM | CCCCCCNC(=O)n1cc(OC(C)=O)c(=O)[nH]c1=O |
| 25 nM | CCCCCCNC(=O)n1cc(C#N)c(=O)[nH]c1=O |
| 0.3 nM | CC(=O)Oc1cn(C(=O)NCCCc2ccc(-c3ccccc3)cc2)c(=O)[nH]c1=O |
| 25 nM | CCCCCCNC(=O)n1cc(F)c(=O)[nH]c1=O [CARMOFUR] |

System: not listed separately
Assay: In vivo inhibition of FAAH in NMRI mouse assessed as remaining enzymatic activity in liver at 30 mg/kg, po measured after 1 hr by AEA-substrate based scintillation counting method relative to control
Type: functional

| SMILES | Activity |
| --- | --- |
| O=c1oc(Oc2ccc(F)cc2F)nn1-c1ccc(O)cc1 | 12% |
| Cl.Cl.O=c1oc(Oc2ccc(F)cc2F)nn1-c1ccc(OCCN2CCNCC2)cc1 | 5% |
| Cl.Cl.O=c1oc(Oc2ccc(F)cc2F)nn1-c1ccc(OCCCN2CCNCC2)cc1 | 8% |
| Cl.O=c1oc(Oc2ccc(F)cc2F)nn1-c1ccc(OCCN2CCCCC2)cc1 | 10% |
| O=c1oc(Oc2ccc(F)cc2F)nn1-c1cccc(O)c1 | 12% |
| Cl.O=c1oc(Oc2ccc(F)cc2F)nn1-c1ccc(OCCN2CCCC2)cc1 | 9% |

Biological target: T1, Fatty-acid amide hydrolase 1
Assay: Inhibition of FAAH in rat brain homogenate using 2-arachidonoyl-[3H]-glycerol as substrate by scintillation counting method
Type: tissue-based

| IC50 | SMILES |
| --- | --- |
| 23.6 nM | O=C(N1CCN(Cc2nc3ccccc3n3cccc23)CC1)n1nnc2ccccc21 |
| 9.6 nM | O=C(N1CCC(NCc2nc3cc(F)ccc3n3cccc23)CC1)n1nnc2ccccc21 |
| 23.2 nM | O=C(N1CCN(Cc2nc3cc(F)ccc3n3cccc23)CC1)n1nnc2ccccc21 |
| 25.1 nM | Cc1ccc2c(nc(CNC3CCN(C(=O)n4nnc5ccccc54)CC3)c3cccn32)c1C |
| 35.8 nM | O=C(N1CCN(Cc2nc3cc(Cl)ccc3n3cccc23)CC1)n1nnc2ccccc21 |
| 20.7 nM | O=C(N1CCN(Cc2nc3cc(F)ccc3n3cccc23)CC1)n1cncn1 |
| 27.3 nM | Cc1ccc2c(nc(CN3CCN(C(=O)n4nnc5ccccc54)CC3)c3cccn32)c1C |
| 32.4 nM | Cc1ccc2c(nc(CN3CCN(C(=O)n4cncn4)CC3)c3cccn32)c1C |
| 37 nM | O=C(N1CCN(Cc2nc3ccccc3n3cccc23)CC1)n1cncn1 |
| 25.1 nM | O=C(N1CCN(Cc2nc3cc(Cl)ccc3n3cccc23)CC1)n1cncn1 |

Biological target: T1, Fatty-acid amide hydrolase 1
Assay: Inhibition of FAAH in rat brain homogenate using [3H]AEA as substrate incubated for 10 mins by liquid scintillation spectroscopy
Type: tissue-based

| IC50 | SMILES |
| --- | --- |
| 18000 nM | COc1ccc(CNC(=O)C(C)c2ccc(CC(C)C)cc2)cc1O (stereo unspecified) |
| 16000 nM | CC(C)Cc1ccc(C(C)C(=O)N2CCN(c3ccc(Cl)c(Cl)c3)CC2)cc1 (stereo unspecified) |
| 27000 nM | CC(C)Cc1ccc(C(C)C(=O)NCc2ccc(F)cc2)cc1 (stereo unspecified) |
| 27000 nM | CC(C)Cc1ccc(C(C)C(=O)NCc2ccc(Cl)cc2)cc1 (stereo unspecified) |
| 16000 nM | Cc1cccc(N2CCN(C(=O)C(C)c3ccc(CC(C)C)cc3)CC2)c1 (stereo unspecified) |
| 21000 nM | CC(C)Cc1ccc(C(C)C(=O)NCc2ccccc2)cc1 (stereo unspecified) |
| 36000 nM | CC(C)Cc1ccc(C(C)C(=O)NCc2ccc(Cl)c(Cl)c2)cc1 (stereo unspecified) |
| 25000 nM | CC(C)Cc1ccc(C(C)C(=O)NCc2ccc(C(C)(C)C)cc2)cc1 (stereo unspecified) |
| 18000 nM | COc1ccccc1CNC(=O)C(C)c1ccc(CC(C)C)cc1 (stereo unspecified) |
| 1700 nM | Cc1cccc(N2CCN(C(=O)C(C)c3ccc(CC(C)C)cc3)CC2)c1C (stereo unspecified) |
| 4700 nM | CC(C)Cc1ccc(C(C)C(=O)N2CCN(c3ccccc3)CC2)cc1 (stereo unspecified) |
| 28000 nM | CC(C)Cc1ccc(C(C)C(=O)NCc2cccc(C(F)(F)F)c2)cc1 (stereo unspecified) |
| 43000 nM | COc1ccc(CNC(=O)C(C)c2ccc(CC(C)C)cc2)cc1 (stereo unspecified) |
| 1700 nM | CC(C)Cc1ccc(C(C)C(=O)N2CCN(c3ccc(Cl)cc3)CC2)cc1 (stereo unspecified) |
| 1700 nM | CC(C)Cc1ccc(C(C)C(=O)N2CCN(c3cccc(Cl)c3)CC2)cc1 (stereo unspecified) |
| 4500 nM | COc1ccc(N2CCN(C(=O)C(C)c3ccc(CC(C)C)cc3)CC2)cc1 (stereo unspecified) |
| 51000 nM | CC(C)Cc1ccc(C(C)C(=O)NCc2ccc(C(F)(F)F)cc2)cc1 (stereo unspecified) |

Biological target: T1, Fatty-acid amide hydrolase 1
Assay: Inhibition of FAAH in Sprague-Dawley rat brain homogenate using arachidonoyl-ethanolamide and anandamide [ethanolamine-1-3H] as substrate pre-incubated for 10 mins followed by substrate addition and measured after 30 mins by liquid scintillation counting method
Type: tissue-based

| SMILES | IC50 |
| --- | --- |
| NC(=O)c1cccc(-c2cccc(OC(=O)NCCCN3CCN(c4cccc(Cl)c4Cl)CC3)c2)c1 | 0.1 nM |

Species on record: Rattus norvegicus
Assay: Selectivity ratio of IC50 for rat NAAA using d4-PEA as substrate to IC50 for rat FAAH using [3H]-AEA as substrate

| Ratio IC50 | SMILES |
| --- | --- |
| > 10000 | CC(=O)Oc1cn(C(=O)NCCCCc2ccc(-c3ccccc3)cc2)c(=O)[nH]c1=O |
| 2 | CCCCCCNC(=O)n1ccc(=O)[nH]c1=O |
| 3130 | CC(=O)Oc1cn(C(=O)NCCCCCCCc2ccccc2)c(=O)[nH]c1=O |
| > 10000 | CC(=O)Oc1cn(C(=O)NCCCc2ccc(-c3ccccc3)cc2)c(=O)[nH]c1=O |

System: not listed separately
Assay: In vivo inhibition of FAAH in NMRI mouse assessed as remaining enzymatic activity in brain at 30 mg/kg, po measured after 1 hr by AEA-substrate based scintillation counting method relative to control
Type: functional

| SMILES | Activity |
| --- | --- |
| O=c1oc(Oc2ccc(F)cc2F)nn1-c1ccc(O)cc1 | 86% |
| Cl.Cl.O=c1oc(Oc2ccc(F)cc2F)nn1-c1ccc(OCCN2CCNCC2)cc1 | 74% |
| Cl.Cl.O=c1oc(Oc2ccc(F)cc2F)nn1-c1ccc(OCCCN2CCNCC2)cc1 | 85% |
| Cl.O=c1oc(Oc2ccc(F)cc2F)nn1-c1ccc(OCCN2CCCCC2)cc1 | 20% |
| O=c1oc(Oc2ccc(F)cc2F)nn1-c1cccc(O)c1 | 94% |
| Cl.O=c1oc(Oc2ccc(F)cc2F)nn1-c1ccc(OCCN2CCCC2)cc1 | 10% |

Biological target: T2, Fatty-acid amide hydrolase 1 (Rattus norvegicus) (UniProt P97612)
T2 sequence (whole entry): T1 sequence (P97612 whole entry)
Assay: Inhibition of FAAH in rat brain homogenate using [3H]AEA as substrate at 100 uM incubated for 10 mins by liquid scintillation spectroscopy relative to control
Type: tissue-based

| inhibition | SMILES |
| --- | --- |
| 41% | COc1cccc(N2CCN(C(=O)C(C)c3ccc(CC(C)C)cc3)CC2)c1 (stereo unspecified) |
| 33% | Cc1ccccc1N1CCN(C(=O)C(C)c2ccc(CC(C)C)cc2)CC1 (stereo unspecified) |
| 19% | CC(C)Cc1ccc(C(C)C(=O)NCc2c(Cl)cccc2Cl)cc1 (stereo unspecified) |

Biological target: T1, Fatty-acid amide hydrolase 1
Assay: Inhibition of FAAH in rat brain homogenate using [3H]AEA as substrate
Type: tissue-based

| IC50 | SMILES |
| --- | --- |
| 2600 nM | O=C(COc1ccc(C2CCCCC2)cc1)Nc1cccc(-c2nc3ncccc3o2)c1 |
| 13000 nM | O=C(COc1ccc(-c2ccccc2)cc1)Nc1cccc(-c2nc3cccnc3[nH]2)c1 |
| 630 nM | O=C(COc1ccc(-c2ccccc2)cc1)Nc1cccc(-c2nc3ncccc3o2)c1 |
| 18000 nM | O=C(COc1ccccc1)Nc1cccc(-c2nc3ncccc3o2)c1 |
| 350 nM | O=C(COc1ccc(-c2ccccc2)cc1)Nc1ccc(-c2nc3ncccc3o2)cc1 |
| 47000 nM | O=C(COc1ccc(C2CCCCC2)cc1)Nc1cccc(-c2nc3ncccc3[nH]2)c1 |
| 2100 nM | CC(C)c1ccc(OCC(=O)Nc2cccc(-c3nc4ncccc4o3)c2)cc1 |
| 1500 nM | O=C(COc1ccc(C2CCCCC2)cc1)Nc1ccc(-c2nc3ncccc3[nH]2)cc1 |
| 17000 nM | CCC/C=C/COCC(=O)Nc1cccc(-c2nc3ncccc3o2)c1 |
| 5500 nM | CCC/C=C/COCC(=O)Nc1ccccc1-c1nc2ncccc2[nH]1 |
| 620 nM | O=C(COc1ccc(-c2ccccc2)cc1)Nc1ccc(-c2nc3ncccc3[nH]2)cc1 |
| 650 nM | O=C(COc1ccc(C2CCCCC2)cc1)Nc1ccccc1-c1nc2ncccc2[nH]1 |
| 73000 nM | CCC/C=C/COCC(=O)Nc1cccc(-c2nc3cccnc3[nH]2)c1 |
| 1100 nM | O=C(COc1ccc(-c2ccccc2)cc1)Nc1ccccc1-c1nc2ncccc2[nH]1 |
| 64000 nM | CCCC/C=C/COCC(=O)Nc1ccc(-c2nc3ncccc3[nH]2)cc1 |

Biological target: T1, Fatty-acid amide hydrolase 1
Assay: Inhibition of FAAH in rat brain microsomes using N-(2-hydroxyethyl)-4-pyren-1-ylbutanamide as substrate incubated for 45 mins by reverse-phase HPLC-based fluorescence assay

| IC50 | SMILES |
| --- | --- |
| 2100 nM | O=C(COc1ccc(Oc2ccccc2)cc1)Cn1ncc2cc(NC(=O)Oc3ccccc3)ccc21 |
| 6300 nM | COCC(=O)Nc1ccc2c(cnn2CC(=O)COc2ccc(Oc3ccccc3)cc2)c1 |
| 5400 nM | O=C(COc1ccc(Oc2ccccc2)cc1)Cn1ncc2cc(NC(=O)CO)ccc21 |
| 5300 nM | N#CNC(COc1ccc(Oc2ccccc2)cc1)Cn1ncnn1 (stereo unspecified) |
| 55 nM | O=C(COc1ccc(Oc2ccccc2)cc1)Cn1ncc2cc(C(=O)O)ccc21 |
| 550 nM | O=C(COc1ccc(Oc2ccccc2)cc1)Cn1ncc2cc([N+](=O)[O-])ccc21 |
| 770 nM | CS(=O)(=O)NC(=O)c1ccc2c(cnn2CC(=O)COc2ccc(Oc3ccccc3)cc2)c1 |
| 840 nM | O=C(COc1ccc(Oc2ccccc2)cc1)Cn1ncc2cc(NC(=O)NC3CCCCC3)ccc21 |
| 3900 nM | CC(=O)Nc1ccc2c(cnn2CC(=O)COc2ccc(Oc3ccccc3)cc2)c1 |
| 2600 nM | O=C(COc1ccc(Oc2ccccc2)cc1)Cn1ncc2ccccc21 |
| 510 nM | O=C(COc1ccc(Oc2ccccc2)cc1)Cn1ncc2cc(C(=O)NS(=O)(=O)C(F)(F)F)ccc21 |
| 10000 nM | O=C(Cn1nnc2ccccc21)c1nc2cc(Oc3ccccc3)ccc2o1 |
| 4000 nM | COC(=O)Nc1ccc2c(cnn2CC(=O)COc2ccc(Oc3ccccc3)cc2)c1 |
| 8 nM | O=C(COc1ccc(Oc2ccccc2)cc1)Cn1ncnn1 |
| 6000 nM | O=C(COc1ccc(Oc2ccccc2)cc1)Cn1ncc2cc(NC(=O)Nc3ccccc3)ccc21 |
| 4700 nM | O=C(COc1ccc(Oc2ccccc2)cc1)Cn1ncc2cc(C(=O)NS(=O)(=O)c3ccccc3)ccc21 |
| 1600 nM | CCNC(=O)Nc1ccc2c(cnn2CC(=O)COc2ccc(Oc3ccccc3)cc2)c1 |
